Results taken from patent US12673959B2, “Polysubstituted imidazolo[4,5-c][1,2]thiazine derivative and use thereof” (KYUNGPOOK NATIONAL UNIVERSITY INDUSTRY-ACADEMIC COOPERATION …, priority 2020, dated 2026).

Tested on: CLP-induced sepsis mouse model
Experiment: Survival rate in cecal ligation and puncture (CLP)-induced sepsis mouse model
Format: in vivo
Conditions: ICR male mice; compound administered intravenously into tail 12 hours and 50 hours after surgery; FIG. 1
Protocol: The anti-inflammatory efficacy of the prepared compound was tested by the survival rate of peritonitis-induced sepsis mouse model. CLP-induced sepsis mouse models were prepared by in vivo methods to verify anti-inflammatory activity, and the preparation method is a widely used experimental method [Wang H, Nat. Med., 2004, 10, 1216-1221]. Forty 6-week-old ICR male mice were divided into 10 mice in each group and the survival rate was observed.
First, the male mice were given respiratory anesthesia using isoflurane, an incision of about 2 cm was made in the middle of the abdomen to take out the appendix adjacent to the intestine, a 5.0. mm portion from the tip of the appendix was ligated with a 3.0-silk suture and pierced once with a 22-gauge needle, and then the incision was closed again with a 4.0-silk suture. Sham mice were sutured without tying or piercing the appendix after incision, and the compound prepared 12 hours and 50 hours after surgery was administered intravenously into mouse tail.

## CCN1c2nc(N3CCCC3)n(C)c2C(=O)C(c2ccc(Cl)cc2)S1(=O)=O (stereo not shown) [Compound 1-42, 3-(4-chlorophenyl)-1-ethyl-5-methyl-6-(pyrrolidin-1-yl)-3,5-dihydroimidazo[4,5-c][1,2]thiazine-4(1H)-one 2,2-dioxide]
  survival rate of the CLP-induced sepsis mouse model increased compared to a group of which only CLP was performed: 60%
